Test results: ChEMBL document CHEMBL1201862, “PubChem BioAssay data set” (2004)
Activity calls are given as the source filed them.

What was measured:
[1] = target: T1, Nucleotide-binding oligomerization domain-containing protein 1 (Homo sapiens, UniProt Q9Y239); assay: SAR analysis of compounds that inhibit NOD1 - Set 3. [Related pubchem assays (depositor defined):AID1566, AID1575, AID1578, AID1849, AID1852, AID2333, AID2335, AID2466]; assay type: functional
T1 sequence (Q9Y239 whole entry): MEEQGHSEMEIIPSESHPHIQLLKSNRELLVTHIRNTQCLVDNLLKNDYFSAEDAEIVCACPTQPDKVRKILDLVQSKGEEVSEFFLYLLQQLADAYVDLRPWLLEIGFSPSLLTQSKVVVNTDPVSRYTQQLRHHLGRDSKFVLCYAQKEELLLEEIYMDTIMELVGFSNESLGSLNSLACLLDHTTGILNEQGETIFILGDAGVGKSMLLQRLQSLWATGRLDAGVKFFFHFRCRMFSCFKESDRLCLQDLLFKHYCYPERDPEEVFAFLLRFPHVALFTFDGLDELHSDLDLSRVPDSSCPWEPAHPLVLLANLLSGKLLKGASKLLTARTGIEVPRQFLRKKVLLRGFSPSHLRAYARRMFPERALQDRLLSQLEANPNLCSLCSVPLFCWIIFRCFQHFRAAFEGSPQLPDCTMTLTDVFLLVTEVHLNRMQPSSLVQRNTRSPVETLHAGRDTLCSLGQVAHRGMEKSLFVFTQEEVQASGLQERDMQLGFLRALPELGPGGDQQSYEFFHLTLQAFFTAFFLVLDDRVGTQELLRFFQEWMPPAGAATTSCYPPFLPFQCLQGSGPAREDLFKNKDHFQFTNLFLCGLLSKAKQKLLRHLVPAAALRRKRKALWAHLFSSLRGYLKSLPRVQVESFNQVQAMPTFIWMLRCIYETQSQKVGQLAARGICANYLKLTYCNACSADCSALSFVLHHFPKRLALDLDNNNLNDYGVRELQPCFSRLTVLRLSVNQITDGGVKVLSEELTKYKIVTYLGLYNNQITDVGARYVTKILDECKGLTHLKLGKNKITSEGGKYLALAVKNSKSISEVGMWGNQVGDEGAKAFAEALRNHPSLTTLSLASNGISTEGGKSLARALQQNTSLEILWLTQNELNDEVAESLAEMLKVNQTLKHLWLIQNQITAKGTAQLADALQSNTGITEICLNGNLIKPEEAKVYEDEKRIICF

HEK293 [2] = assay: SAR analysis of compounds that are cytotoxic to HEK293 - Set 3. [Related pubchem assays (depositor defined):AID1575, AID1578, AID1848, AID1849, AID2001, AID2333, AID2334, AID2335, AID2337, AID2469]; assay type: functional, cell-based; settings: Homo sapiens
Interleukin-8 [3] = target: T2, Interleukin-8 (Homo sapiens, UniProt P10145); assay: SAR analysis of Tumor necrosis factor alpha (TNF-alpha) induced IL-8 secretion in MCF-7/NOD1 cells - Set 2. [Related pubchem assays (depositor defined):AID1575, AID2250, AID2260]; assay type: functional, cell-based
T2 sequence (P10145 whole entry): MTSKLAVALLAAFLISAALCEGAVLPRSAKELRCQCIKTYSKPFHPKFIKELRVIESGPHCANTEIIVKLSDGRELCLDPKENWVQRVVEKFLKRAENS

[4] = target: T3, High affinity choline transporter 1 (Homo sapiens, UniProt Q9GZV3); assay: human choline transporter blockers, potency – cell-based, 5-point CRC, membrane potential dye, dose response (AID 504840); assay type: functional
T3 sequence (Q9GZV3 whole entry): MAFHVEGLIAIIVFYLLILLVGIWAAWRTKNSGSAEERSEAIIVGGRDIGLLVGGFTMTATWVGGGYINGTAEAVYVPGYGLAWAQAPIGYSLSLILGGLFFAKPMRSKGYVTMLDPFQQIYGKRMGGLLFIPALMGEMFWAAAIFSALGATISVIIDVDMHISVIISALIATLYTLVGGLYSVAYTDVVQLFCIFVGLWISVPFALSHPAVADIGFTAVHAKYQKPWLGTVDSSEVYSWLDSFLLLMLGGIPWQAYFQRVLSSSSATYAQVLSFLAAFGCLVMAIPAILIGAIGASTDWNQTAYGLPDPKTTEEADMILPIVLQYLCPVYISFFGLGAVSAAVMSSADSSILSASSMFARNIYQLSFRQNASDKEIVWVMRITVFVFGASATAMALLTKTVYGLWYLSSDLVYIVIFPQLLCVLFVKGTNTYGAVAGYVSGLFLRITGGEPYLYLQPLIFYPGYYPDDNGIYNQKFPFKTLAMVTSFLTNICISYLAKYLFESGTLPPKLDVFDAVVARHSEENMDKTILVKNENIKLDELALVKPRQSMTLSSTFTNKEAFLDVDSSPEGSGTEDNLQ

[5] = target: T4, Nucleotide-binding oligomerization domain-containing protein 2 (Homo sapiens, UniProt Q9HC29); assay: inhibition of NOD2 signaling – set 2, SAR follow-up (AID 2475); assay type: functional
T4 sequence (Q9HC29 whole entry, the tested form may be a part): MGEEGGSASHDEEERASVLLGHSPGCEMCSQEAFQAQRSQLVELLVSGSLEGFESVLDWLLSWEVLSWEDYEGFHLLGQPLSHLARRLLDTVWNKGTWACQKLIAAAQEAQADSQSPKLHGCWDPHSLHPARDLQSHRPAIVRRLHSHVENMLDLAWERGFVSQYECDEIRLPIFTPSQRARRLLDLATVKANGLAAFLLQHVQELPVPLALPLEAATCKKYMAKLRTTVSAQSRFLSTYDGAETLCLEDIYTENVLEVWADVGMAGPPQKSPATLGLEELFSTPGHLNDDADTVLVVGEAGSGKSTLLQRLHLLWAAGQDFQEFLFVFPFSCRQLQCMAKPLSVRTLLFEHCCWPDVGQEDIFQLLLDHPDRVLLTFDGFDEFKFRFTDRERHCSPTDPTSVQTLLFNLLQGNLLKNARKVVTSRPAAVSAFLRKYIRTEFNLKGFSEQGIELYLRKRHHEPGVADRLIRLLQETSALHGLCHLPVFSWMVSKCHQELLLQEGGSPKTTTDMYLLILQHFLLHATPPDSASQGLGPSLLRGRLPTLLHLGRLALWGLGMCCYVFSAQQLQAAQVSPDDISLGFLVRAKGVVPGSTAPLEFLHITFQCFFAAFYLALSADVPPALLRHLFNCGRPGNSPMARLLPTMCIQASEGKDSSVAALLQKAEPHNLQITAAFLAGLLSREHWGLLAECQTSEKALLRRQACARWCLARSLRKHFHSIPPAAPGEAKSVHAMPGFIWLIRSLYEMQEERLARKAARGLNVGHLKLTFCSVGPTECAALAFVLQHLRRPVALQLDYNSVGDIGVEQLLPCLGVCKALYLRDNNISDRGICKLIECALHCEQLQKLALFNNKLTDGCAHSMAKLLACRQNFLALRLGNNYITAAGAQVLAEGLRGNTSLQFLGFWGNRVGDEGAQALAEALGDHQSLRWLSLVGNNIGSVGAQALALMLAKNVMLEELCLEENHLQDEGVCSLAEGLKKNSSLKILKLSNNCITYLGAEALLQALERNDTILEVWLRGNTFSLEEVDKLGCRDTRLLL

[6] = target: T1, Nucleotide-binding oligomerization domain-containing protein 1; assay: SAR analysis of compounds that inhibit NOD1 - Set 2. [Related pubchem assays (depositor defined):AID1566, AID1575, AID1578, AID1849, AID1852, AID2333, AID2335, AID2798]; assay type: functional
Fatty acid synthase [7] = target: T5, Fatty acid synthase (Homo sapiens, UniProt P49327); assay: inhibition of human FAS-TE enzyme activity – biochemical, kinetic fluorescence intensity, dose response (AID 624326); assay type: functional;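 note: rate of fluorescence rise from hydrolysis of a fluorogenic O-methyl fluorescein ester substrate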
T5 sequence (P49327 whole entry): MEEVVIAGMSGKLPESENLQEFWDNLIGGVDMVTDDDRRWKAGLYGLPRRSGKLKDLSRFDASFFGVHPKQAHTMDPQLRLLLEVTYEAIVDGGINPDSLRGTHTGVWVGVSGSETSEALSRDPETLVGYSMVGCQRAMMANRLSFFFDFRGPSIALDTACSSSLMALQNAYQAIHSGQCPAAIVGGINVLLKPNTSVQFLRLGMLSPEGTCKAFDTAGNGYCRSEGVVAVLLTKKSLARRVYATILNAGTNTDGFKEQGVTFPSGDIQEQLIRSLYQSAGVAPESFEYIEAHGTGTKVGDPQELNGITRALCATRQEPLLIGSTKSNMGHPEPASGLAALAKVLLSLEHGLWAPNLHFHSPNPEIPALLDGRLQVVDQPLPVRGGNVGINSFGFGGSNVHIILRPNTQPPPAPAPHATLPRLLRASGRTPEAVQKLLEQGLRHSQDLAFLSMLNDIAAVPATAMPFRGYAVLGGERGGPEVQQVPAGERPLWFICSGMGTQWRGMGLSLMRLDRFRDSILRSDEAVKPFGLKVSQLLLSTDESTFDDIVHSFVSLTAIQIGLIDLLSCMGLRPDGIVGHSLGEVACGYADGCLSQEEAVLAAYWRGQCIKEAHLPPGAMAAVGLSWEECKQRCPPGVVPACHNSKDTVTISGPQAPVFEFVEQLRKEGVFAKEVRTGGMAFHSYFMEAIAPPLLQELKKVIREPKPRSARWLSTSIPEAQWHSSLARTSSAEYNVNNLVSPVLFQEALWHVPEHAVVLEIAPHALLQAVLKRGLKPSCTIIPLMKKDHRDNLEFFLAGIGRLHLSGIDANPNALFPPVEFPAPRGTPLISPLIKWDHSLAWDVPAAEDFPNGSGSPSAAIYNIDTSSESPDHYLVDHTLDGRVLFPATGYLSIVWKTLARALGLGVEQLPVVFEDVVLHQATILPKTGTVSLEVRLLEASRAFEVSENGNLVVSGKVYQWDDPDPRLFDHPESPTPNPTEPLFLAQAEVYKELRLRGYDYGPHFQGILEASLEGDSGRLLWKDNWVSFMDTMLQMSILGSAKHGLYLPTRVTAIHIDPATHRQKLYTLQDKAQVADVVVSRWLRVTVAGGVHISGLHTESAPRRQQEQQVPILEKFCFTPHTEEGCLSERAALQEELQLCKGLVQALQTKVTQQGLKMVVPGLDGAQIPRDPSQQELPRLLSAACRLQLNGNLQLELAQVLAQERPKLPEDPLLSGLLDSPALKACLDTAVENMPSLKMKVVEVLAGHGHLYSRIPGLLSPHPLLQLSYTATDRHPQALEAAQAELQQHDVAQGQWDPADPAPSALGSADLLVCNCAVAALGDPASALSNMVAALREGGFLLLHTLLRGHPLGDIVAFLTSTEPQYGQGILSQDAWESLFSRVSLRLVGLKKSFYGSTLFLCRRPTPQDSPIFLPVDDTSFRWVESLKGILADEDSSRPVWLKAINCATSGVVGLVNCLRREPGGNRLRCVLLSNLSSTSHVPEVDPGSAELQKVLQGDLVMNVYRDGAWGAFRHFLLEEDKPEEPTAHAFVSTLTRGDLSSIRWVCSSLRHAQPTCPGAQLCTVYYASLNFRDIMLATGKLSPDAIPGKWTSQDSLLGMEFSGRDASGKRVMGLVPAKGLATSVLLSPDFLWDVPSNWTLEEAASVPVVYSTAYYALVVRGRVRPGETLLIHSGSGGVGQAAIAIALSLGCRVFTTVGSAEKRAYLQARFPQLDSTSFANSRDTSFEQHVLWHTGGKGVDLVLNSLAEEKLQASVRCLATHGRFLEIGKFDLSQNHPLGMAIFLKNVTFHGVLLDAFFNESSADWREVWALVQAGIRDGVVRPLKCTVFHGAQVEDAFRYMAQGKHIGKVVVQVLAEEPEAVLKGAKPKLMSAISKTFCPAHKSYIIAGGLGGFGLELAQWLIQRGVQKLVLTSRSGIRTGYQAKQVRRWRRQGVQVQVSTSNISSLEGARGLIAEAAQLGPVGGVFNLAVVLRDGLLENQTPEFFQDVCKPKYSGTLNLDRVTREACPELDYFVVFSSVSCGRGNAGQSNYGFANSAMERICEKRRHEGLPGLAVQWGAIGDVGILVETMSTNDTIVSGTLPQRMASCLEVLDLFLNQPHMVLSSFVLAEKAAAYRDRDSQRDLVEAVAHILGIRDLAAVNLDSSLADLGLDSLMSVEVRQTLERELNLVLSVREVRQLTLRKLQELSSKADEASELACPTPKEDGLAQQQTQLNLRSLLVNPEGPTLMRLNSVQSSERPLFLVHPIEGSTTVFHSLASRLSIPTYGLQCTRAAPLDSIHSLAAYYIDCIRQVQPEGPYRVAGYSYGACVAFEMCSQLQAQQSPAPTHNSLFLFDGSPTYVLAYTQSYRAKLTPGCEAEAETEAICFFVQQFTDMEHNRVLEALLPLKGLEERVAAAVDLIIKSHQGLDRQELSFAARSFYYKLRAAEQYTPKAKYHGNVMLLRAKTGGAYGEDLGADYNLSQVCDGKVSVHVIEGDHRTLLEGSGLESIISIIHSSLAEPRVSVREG

Fatty acid synthase [8] = target: T5, Fatty acid synthase; assay: inhibition of human FAS-TE enzyme activity – biochemical, endpoint fluorescence intensity, uHTS hits, dose response (AID 624327); assay type: functional;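 note: fluorescence from hydrolysis of an O-methyl fluorescein acyl ester substrate by the enzyme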
[9] = target: T4, Nucleotide-binding oligomerization domain-containing protein 2; assay: inhibition of MDP-driven NOD2 NF-kB reporter – cell-based, set 3, SAR follow-up (AID 2799); assay type: functional
Interleukin-8 [10] = target: T2, Interleukin-8; assay: SAR analysis of GM-Tri-DAP induced IL-8 secretion in MCF-7/NOD1 cells - Set 2. [Related pubchem assays (depositor defined):AID1575, AID1578, AID2333]; assay type: functional, cell-based
[11] = target: T1, Nucleotide-binding oligomerization domain-containing protein 1; assay: SAR analysis of NF-kappaB dependent luciferase using DAP as an inducer - Set 2. [Related pubchem assays (depositor defined):AID1566, AID1575, AID1578, AID1579, AID1849, AID1852, AID2264]; assay type: functional
HEK293 [12] = assay: SAR analysis of compounds that are cytotoxic to HEK293 - Set 2. [Related pubchem assays (depositor defined):AID1575, AID1578, AID1849, AID2001, AID2333, AID2334, AID2335, AID2337, AID2800]; assay type: functional, cell-based; settings: Homo sapiens
Tumor necrosis factor [13] = target: T6, Tumor necrosis factor (Homo sapiens, UniProt P01375); assay: analog potency on TNFa NF-kB signaling – cell-based, set 3, SAR follow-up (AID 2801); assay type: functional
T6 sequence (P01375 whole entry): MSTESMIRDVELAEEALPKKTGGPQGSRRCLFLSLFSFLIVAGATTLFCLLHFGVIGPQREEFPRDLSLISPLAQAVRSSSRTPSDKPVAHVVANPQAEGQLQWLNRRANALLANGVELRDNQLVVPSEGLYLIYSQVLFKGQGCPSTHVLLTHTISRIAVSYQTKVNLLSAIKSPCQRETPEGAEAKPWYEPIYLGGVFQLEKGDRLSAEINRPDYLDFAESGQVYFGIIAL

[14] = target: Dual specificity protein phosphatase 3 (Homo sapiens, UniProt P51452); assay: SAR VHR1 Fluorescent Assay for In Vitro dose response studies Set 3. [Related pubchem assays (depositor defined):AID1654, AID1661, AID1878]; assay type: functional
Sequence of Dual specificity protein phosphatase 3 (P51452 whole entry, the tested form may be a part): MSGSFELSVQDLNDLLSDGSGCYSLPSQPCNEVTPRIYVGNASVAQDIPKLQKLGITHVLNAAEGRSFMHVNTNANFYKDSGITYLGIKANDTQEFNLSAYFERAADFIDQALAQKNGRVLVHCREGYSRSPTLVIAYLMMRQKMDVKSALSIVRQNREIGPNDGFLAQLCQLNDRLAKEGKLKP

[15] = blockers of HIV-1 envelope-mediated cell-cell fusion – cherry-pick, dose response (AID 652057); assay type: functional, cell-based
[16] = viability loss in CEM21 cells – cell-based, CellTiter-Glo luminescence, cherry-picked, cytotoxicity control for viral fusion inhibitor project, dose response (AID 652042); assay type: functional;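 note: potency for signal decrease meaning cytotoxicity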
[17] = off-target signal loss in HeLa-CEM21 co-culture – HeLa F-luc CTL cells, cherry-picked, counter-screen for HIV-1 Env fusion inhibitor project, dose response (AID 652040); assay type: functional, cell-based;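 note: potency for signal decrease marking cytotoxic or nonspecific inhibition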
[18] = blockers of HIV-1 ZM109 envelope-driven cell-cell fusion – HeLa effector, CEM target cells, luciferase, cherry-pick, dose response (AID 652058); assay type: functional, cell-based;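 note: luciferase signal from HIV-1 Env mediated cell-cell fusion of effector and target cells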
[19] = target: Cyclin-dependent kinase 5/CDK5 activator 1 (Homo sapiens, UniProt Q00535); assay: blockade of human CDK5 activity – biochemical, cherry-picked samples, set 2, dose response (AID 504545)
[20] = target: T7, Short transient receptor potential channel 4 (Mus musculus, UniProt Q9QUQ5); assay: block of DAMGO-driven TRPC4 calcium entry – cell-based, HEK293 TRPC4/mu-opioid, Fluo-4 calcium, dose response (AID 434942); assay type: functional;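 note: potency of inhibitors blocking the TRPC4 calcium response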
T7 sequence (Q9QUQ5 whole entry): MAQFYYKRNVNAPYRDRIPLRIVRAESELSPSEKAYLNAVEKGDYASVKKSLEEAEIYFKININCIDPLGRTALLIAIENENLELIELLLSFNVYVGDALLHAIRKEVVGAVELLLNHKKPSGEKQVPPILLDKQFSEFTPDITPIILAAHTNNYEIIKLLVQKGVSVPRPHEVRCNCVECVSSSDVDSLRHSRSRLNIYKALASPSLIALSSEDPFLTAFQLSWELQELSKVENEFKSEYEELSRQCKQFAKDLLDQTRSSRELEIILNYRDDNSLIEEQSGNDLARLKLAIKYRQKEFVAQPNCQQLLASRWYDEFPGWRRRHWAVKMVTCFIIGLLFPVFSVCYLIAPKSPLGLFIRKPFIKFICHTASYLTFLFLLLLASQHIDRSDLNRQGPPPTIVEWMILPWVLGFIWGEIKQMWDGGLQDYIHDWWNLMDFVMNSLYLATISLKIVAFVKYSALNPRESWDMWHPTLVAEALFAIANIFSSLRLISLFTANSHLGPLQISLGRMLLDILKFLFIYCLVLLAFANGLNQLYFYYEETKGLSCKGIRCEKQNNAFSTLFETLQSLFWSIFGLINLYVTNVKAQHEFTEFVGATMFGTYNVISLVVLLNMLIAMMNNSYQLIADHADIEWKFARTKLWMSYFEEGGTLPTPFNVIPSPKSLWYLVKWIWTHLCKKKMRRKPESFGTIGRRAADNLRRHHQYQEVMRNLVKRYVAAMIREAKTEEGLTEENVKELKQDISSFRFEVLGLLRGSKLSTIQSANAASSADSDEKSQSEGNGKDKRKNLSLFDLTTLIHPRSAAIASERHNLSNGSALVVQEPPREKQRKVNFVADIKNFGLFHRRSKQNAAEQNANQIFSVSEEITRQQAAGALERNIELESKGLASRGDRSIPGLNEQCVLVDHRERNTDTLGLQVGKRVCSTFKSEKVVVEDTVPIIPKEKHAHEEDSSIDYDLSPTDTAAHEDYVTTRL

[21] = MIN6 cell viability loss – mouse insulinoma, cytotoxicity control, dose response (AID 2122); assay type: functional;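 note: confirmatory high-throughput counterscreen run to flag cytotoxic compounds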
[22] = HIV-1 AD8 envelope cell-cell fusion blockers – cherry-pick, dose response (AID 652062); assay type: functional, cell-based;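 note: luciferase signal from cell-cell fusion driven by HIV-1 clade B AD8 Env; potency is for inhibitors of fusion seen as a drop in luminescence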
[23] = decrease of insulin promoter-GFP reporter – imaging, high-content screening, mouse beta cells (AID 1628); assay type: functional; settings: MIN6
[24] = target: G-protein coupled receptor 55 (Homo sapiens, UniProt Q9Y2T6); assay: blockers of GPR55 signalling, imaged – imaging, image-based, counter-screen for GPR35 antagonist project, SAR follow-up (AID 2397); assay type: functional
[25] = target: UDP-galactopyranose mutase (Mycobacterium tuberculosis, UniProt P9WIQ1); assay: Inhibitors of Mycobacterium tuberculosis UDP-galactopyranose mutase (UGM) enzyme Measured in Biochemical System Using Plate Reader - 2105-02_Inhibitor_Dose_CherryPick_Activity. [Related pubchem assays (depositor defined):AID504439]
HEK293 [26] = assay: cells; settings: Homo sapiens
[27] = target: T1, Nucleotide-binding oligomerization domain-containing protein 1; assay: blockers of NOD1 pathway activity – revised, SAR follow-up (AID 2333); assay type: functional
[28] = target: T4, Nucleotide-binding oligomerization domain-containing protein 2; assay: PubChem AID 2334; assay type: functional
Tumor necrosis factor [29] = target: T6, Tumor necrosis factor; assay: analog potency on TNFa NF-kB signaling – cell-based, revised, SAR follow-up (AID 2337); assay type: functional
[30] = target: Voltage-dependent T-type calcium channel subunit alpha-1H (Homo sapiens, UniProt O95180); assay: inhibition of CACNA1H calcium flux – cell-based, SynthLib3 library, HEK293 Cav3.2, fluorescence (AID 493041); assay type: functional
Cytochrome P450 2C9 = Cytochrome P450 2C9 (Homo sapiens, UniProt P11712)
Sequence of Cytochrome P450 2C9 (P11712 whole entry): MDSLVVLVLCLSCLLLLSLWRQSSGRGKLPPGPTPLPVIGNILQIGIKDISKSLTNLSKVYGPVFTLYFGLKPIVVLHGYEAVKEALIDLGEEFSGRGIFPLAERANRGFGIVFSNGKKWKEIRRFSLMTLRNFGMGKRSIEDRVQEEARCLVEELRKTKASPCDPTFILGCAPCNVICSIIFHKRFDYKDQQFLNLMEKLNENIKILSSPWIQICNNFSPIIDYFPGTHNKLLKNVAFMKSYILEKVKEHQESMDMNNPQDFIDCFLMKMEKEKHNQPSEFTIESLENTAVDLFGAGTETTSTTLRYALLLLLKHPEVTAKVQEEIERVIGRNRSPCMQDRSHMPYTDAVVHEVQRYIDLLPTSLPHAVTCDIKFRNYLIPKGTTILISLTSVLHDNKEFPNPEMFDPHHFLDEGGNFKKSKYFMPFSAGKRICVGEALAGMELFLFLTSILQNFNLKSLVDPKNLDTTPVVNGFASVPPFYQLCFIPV

Cytochrome P450 2D6 = Cytochrome P450 2D6 (Homo sapiens, UniProt P10635);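 note: CYP2D6 member of a cytochrome P450 panel assay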
Sequence of Cytochrome P450 2D6 (P10635 whole entry): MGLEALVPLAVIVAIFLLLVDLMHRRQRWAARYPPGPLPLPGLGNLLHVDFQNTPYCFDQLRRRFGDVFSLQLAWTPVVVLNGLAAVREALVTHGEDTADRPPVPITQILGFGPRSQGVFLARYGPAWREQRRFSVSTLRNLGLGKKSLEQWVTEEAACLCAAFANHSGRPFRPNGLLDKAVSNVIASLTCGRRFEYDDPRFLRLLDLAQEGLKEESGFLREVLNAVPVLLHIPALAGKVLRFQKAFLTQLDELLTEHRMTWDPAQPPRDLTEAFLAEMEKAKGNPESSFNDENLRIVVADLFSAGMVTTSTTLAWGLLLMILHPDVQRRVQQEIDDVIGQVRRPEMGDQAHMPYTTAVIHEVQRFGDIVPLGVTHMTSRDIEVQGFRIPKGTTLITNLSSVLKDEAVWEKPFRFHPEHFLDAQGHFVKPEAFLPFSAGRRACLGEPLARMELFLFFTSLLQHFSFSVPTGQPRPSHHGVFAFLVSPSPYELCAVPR

CCCCn1c(CN2CCN(c3cccc(Cl)c3)CC2)nc2c1c(=O)n(C)c(=O)n2C
active: IC50 [1] 1.8 µM | IC50 [4] 15.1 µM | IC50 [5] 2.21 µM | IC50 [6] 2.18 µM | IC50 (Fatty acid synthase [7]) 5.74 µM | IC50 (Fatty acid synthase [8]) 5.07 µM | IC50 [9] 1.41 µM | IC50 [11] 8.7 µM | IC50 (Tumor necrosis factor [13]) 3.35 µM
inactive: IC50 (HEK293 [2]) > 20 µM | IC50 (Interleukin-8 [3]) > 25 µM | IC50 (Interleukin-8 [10]) > 25 µM | IC50 (HEK293 [12]) > 20 µM

Cc1ccc2sc(-c3ccc(NC(=O)c4cc(-n5cnnc5)ccc4Cl)cc3)nc2c1
active: IC50 [14] 11.4 µM

CCCn1c(NC(=O)c2cccc(S(=O)(=O)N3CCCC3)c2)nc2ccccc21
active: AC50 [15] 8.66 µM | AC50 [16] 9.5 µM | AC50 [17] 20.4 µM | AC50 [18] 11.2 µM | AC50 [19] 3.94 µM | EC50 [20] 0.749 µM | IC50 [21] 4.19 µM | AC50 [22] 9.76 µM | IC50 [23] 3.34 µM

c1ccc(-c2n[n+](-c3ccccc3)c(-c3ccccc3)s2)cc1
inactive: IC50 [24] > 32 µM

CCOC(=O)c1c(O)[n+]([O-])c2ccc(OC)cc2[n+]1[O-]
active: AC50 [25] 200 µM

CC1(C)Cc2c(sc(NC(=O)c3ccccc3Cl)c2C(=O)O)CO1
inactive: IC50 (HEK293 [26]) > 20 µM | IC50 [27] > 20 µM | IC50 [28] > 20 µM | IC50 (Tumor necrosis factor [29]) > 20 µM

CC(C)(C)Cc1nnc(NC(=O)COc2ccc(Cl)cc2Cl)o1
active: EC50 [30] 0.81 µM

CCOC(=O)COc1c(C=O)cc(Br)cc1OC
inconclusive: AC50 (Cytochrome P450 2C9) | AC50 (Cytochrome P450 2D6)
